{
  "source": "patent US8962322B2",
  "about": "“Enhancers of induced pluripotent stem cell reprogramming” (City of Hope, priority 2012, dated 2015)",
  "key": {"[1]": {"test_system": "mouse embryonic fibroblasts (MEFs)", "experiment": "iPSC derivation from 4F (OSKM)-transduced MEFs in mouse ESC media", "type": "cell-based", "experimental": "The generation of iPSCs is a gradual process with relatively low efficiency. Since Oct4 is central to the reprogramming process (35, 36, 38), it was hypothesized that compounds that activate Oct4 transcription may facilitate iPSC generation by enhancing reprogramming efficiency. Reprogramming of mouse embryonic fibroblasts (MEFs) was performed with the 4F reprogramming quartet Oct4, Sox2, Klf4, and c-Myc, along with solvent control, OAC1 or its structural analogs OAC2 and OAC3. The same number of starting MEFs and the same viral stocks were used for each treatment. Two days after viral transduction, the 4F-transduced cells were seeded onto feeder cells in mouse ESC culture media, and this day was designated as day 0 (FIG. 2D). Compound treatment started on day 0 and lasted for 7 days. By counting the number of clones with ESC-like morphology at day 18, both OAC1 and its analogs OAC2 and OAC3 enhanced the 4F-induced reprogramming efficiency considerably. The number of colonies with ESC-like morphology (FIG. 2E) increased 2-fold or more in 4F plus OAC (4F+OAC) treatment, compared to the 4F treatment alone (FIG. 2F, Table 3).\niPSC Derivation in Mouse ESC Media: OG2/R26MEFs were seeded onto […] at the density of 4×10^4 cells per well in DMEM medium with 10% FBS, 0.1 mM non-essential amino acids (NEAA), and 0.1 mM L-glutamine, 24 hr before transduction. Freshly concentrated viruses of the four factors, Oct4, Sox2, c-Myc, and Klf4, were added to the cells. Two days after viral infection, the viral-transduced OG2/R26MEFs were split into new 6-well plates with irradiated MEF feeder cells and cultured in mouse ESC culture medium containing 15% ESC qualified FBS, 2 mM L-glutamine, 0.1 mM 2-mercaptoethanol, 0.1 mM NEAA, 1 mM sodium pyruvate and 1000 U/ml of leukemia inhibitory factor (LIF), and this day was defined as day 0. 1 μM of each compound (OAC1, OAC2, and OAC3) was added to the 4F-transduced cells at day 0 and treatment was continued for 1 week. When iPSC colonies emerged, these colonies were picked for expansion on irradiated MEF feeders in mouse ESC medium."}, "[2]": {"test_system": "β-catenin-responsive reporter gene Topflash", "experiment": "Topflash luciferase reporter assay in CV1 cells (Wnt signaling)", "type": "cell-based", "conditions": "1 μM OAC1 or 2 μM BIO, 48 hr", "experimental": "Whether OAC1 regulates major signaling pathways that are critical for embryonic stem cell pluripotency was investigated. […] CV1 cells were transfected with the β-catenin-responsive reporter gene Topflash, and the transfected cells were treated with vehicle control or OAC1 (FIG. 6C). The glycogen synthase kinase 3β (GSK3β) inhibitor BIO was included as a positive control (42).\nAzaC, 25 μg/ml Vc, 10 nM Am580, 5 μM tranylcypromine, and 0.5 mM VPA. Luciferase reporter assays were performed as described (51) 24 hr after compound treatment or at indicated time points. For Topflash reporter assays, 0.2 μg β-catenin-responsive Topflash reporter gene plasmid was introduced into CV1 cells using trasfection (Bio-Rad). Compounds were added 6 hr after transfection. Luciferase activity was measured 48 hr after compound treatment using the Glo Luciferase Assay System (Promega)."}, "endogenous Nanog": {"test_system": "endogenous Nanog", "experiment": "RT-PCR of endogenous Nanog mRNA in treated MEFs", "type": "cell-based, mouse", "conditions": "versus vehicle", "experimental": "MEFs were treated with vehicle control or OAC 1 to test whether OAC 1 activates endogenous Oct4 and Nanog gene transcription. […] Oct4, Sox2, and Nanog are central to the transcriptional regulatory hierarchy for ESC pluripotency, forming the core transcriptional regulatory circuitry in ESCs (37). […] OAC1 activated Sox2 mRNA expression, along with Oct4 and Nanog (FIG. 61).\nRT-PCR analysis: Total RNA was purified with Trizol reagent (Invitrogen). Reverse transcription was performed with 1 μg of RNA using Omniscript® Reverse Transcription Kit (Qiagen). Quantitative PCR was performed using iTaq SYBR Green Supermix with Rox (Bio-rad) in Applied Biosystem Step one plus real-time PCR system. […]"}},
  "data": [
    {"smiles": "O=C(Nc1cc2cc[nH]c2cn1)c1ccccc1", "note": "[OAC1, N-(1H-6-azaindol-5-yl)benzamide]", "values": [
      {"measurement": "advance of the appearance of putative iPSC colonies compared to 4F only reprogramming", "setting": "[1]; 4F+OAC", "value": "about three to four"},
      {"measurement": "Colony numbers", "setting": "[1]; MEFs in mouse ESC media, OSKM, seeding 3 × 10^4, day 18, 1 μM compound", "value": 130},
      {"measurement": "Reprogramming efficiency", "setting": "[1]; MEFs in mouse ESC media, OSKM, seeding 3 × 10^4, day 18, colony numbers divided by seeding cell numbers", "value": 0.43, "unit": "%"},
      {"measurement": "effect on Topflash reporter activity", "setting": "[2]", "value": "no effect"},
      {"measurement": "endogenous Nanog mRNA expression", "setting": "endogenous Nanog", "value": "activated"}
    ]}
  ]
}
